target: T1, APOL1 (Homo sapiens, UniProt O14791); test: Multi-Tox Assay (MultiTox-Fluor Multiplex Cytotoxicity Assay in tet-inducible APOL1 T-REx-HEK293 cells; Table 46 does not say which APOL1 variant G0/G1/G2); format: cell-based; settings: APOL1 variant not given
T1 sequence (O14791 1-398 S342G/I384M): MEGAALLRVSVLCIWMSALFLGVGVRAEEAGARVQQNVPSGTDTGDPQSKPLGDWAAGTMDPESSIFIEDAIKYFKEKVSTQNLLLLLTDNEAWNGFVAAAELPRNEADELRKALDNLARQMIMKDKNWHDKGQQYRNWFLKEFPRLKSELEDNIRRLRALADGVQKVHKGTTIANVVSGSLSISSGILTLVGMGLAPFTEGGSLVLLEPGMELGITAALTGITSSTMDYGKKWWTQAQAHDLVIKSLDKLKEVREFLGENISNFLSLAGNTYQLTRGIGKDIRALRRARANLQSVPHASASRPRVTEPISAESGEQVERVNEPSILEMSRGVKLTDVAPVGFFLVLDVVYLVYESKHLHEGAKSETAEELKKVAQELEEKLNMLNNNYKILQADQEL

Row | SMILES | Multi-Tox Assay Max Activity (%) | IC90 [nM]
1 | COc1ccc(Cn2cc([C@@H]3C[C@]4(C[C@H](C)N3)OC[C@@H](O)c3cc(Cl)sc34)nn2)cc1 [Compound 295] | 99.0 | –
2 | Cc1cc(Cn2cc([C@@H]3C[C@]4(C[C@H](C)N3)OC[C@@H](O)c3cc(Cl)sc34)nn2)ccn1 [Compound 296] | 99.0 | –
3 | Cc1nc(Cn2cc([C@@H]3C[C@]4(C[C@H](C)N3)OC[C@@H](O)c3cc(Cl)sc34)nn2)oc1C [Compound 297] | 99.0 | –
4 | C[C@H]1C[C@@]2(C[C@@H](c3cn(Cc4ncc(F)cc4F)nn3)N1)OC[C@@H](O)c1cc(Cl)sc12 [Compound 298] | 95.0 | –
5 | C[C@@H](CO)CCn1cc([C@@H]2C[C@]3(C[C@H](C)N2)OC[C@@H](O)c2cc(Cl)sc23)nn1 [Compound 299] | 99.0 | 50 to 500
6 | C[C@H]1C[C@@]2(C[C@@H](c3cn(C[C@H](O)CO)nn3)N1)OC[C@@H](O)c1cc(Cl)sc12 [Compound 300] | 100.0 | 50 to 500
7 | C[C@H]1C[C@@]2(C[C@@H](c3cn(CCOc4ccccc4F)nn3)N1)OC[C@@H](O)c1cc(Cl)sc12 [Compound 301] | 99.0 | –
8 | C[C@H]1C[C@@]2(C[C@@H](c3cn(Cc4ccc(O)cc4)nn3)N1)OCC(F)(F)c1cc(Cl)sc12 [Compound 302] | 94.0 | –
9 | Cc1cccc(OCC(O)Cn2cc([C@@H]3C[C@]4(C[C@H](C)N3)OCC(F)(F)c3cc(Cl)sc34)nn2)c1 (stereo partly shown) [Compound 303] | 99.0 | –
10 | Cc1ccccc1C(O)Cn1cc([C@@H]2C[C@]3(C[C@H](C)N2)OCC(F)(F)c2cc(Cl)sc23)nn1 (stereo partly shown) [Compound 304] | 99.0 | –
11 | C[C@H]1C[C@@]2(C[C@@H](c3cn(CCc4ccncn4)nn3)N1)OCC(F)(F)c1cc(Cl)sc12 [Compound 305] | 100.0 | –
12 | CC(CO)CCn1cc([C@@H]2C[C@]3(C[C@H](C)N2)OCC(F)(F)c2cc(Cl)sc23)nn1 (stereo partly shown) [Compound 306] | 99.0 | –
13 | C[C@H]1C[C@@]2(C[C@@H](c3cn(CC4CCS(=O)(=O)C4)nn3)N1)OCC(F)(F)c1cc(Cl)sc12 (stereo partly shown) [Compound 307] | 99.0 | –
14 | C[C@H]1C[C@@]2(C[C@@H](c3cn(Cc4ccc(OC5CCOCC5)cc4)nn3)N1)OCC(F)(F)c1cc(Cl)sc12 [Compound 308] | 95.0 | –
15 | C[C@H]1C[C@@]2(C[C@@H](c3cn(CC4CCOCC4)nn3)N1)OCC(F)(F)c1cc(Cl)sc12 [Compound 309] | 97.0 | –
16 | C[C@H]1C[C@@]2(C[C@@H](c3cn(Cc4cccc5c4OCCO5)nn3)N1)OCC(F)(F)c1cc(Cl)sc12 [Compound 310] | 94.0 | –
17 | C[C@H]1C[C@@]2(C[C@@H](c3cn(CC4CCOC4)nn3)N1)OCC(F)(F)c1cc(Cl)sc12 (stereo partly shown) [Compound 311] | 99.0 | –
18 | COCC1(Cn2cc([C@@H]3C[C@]4(C[C@H](C)N3)OCC(F)(F)c3cc(Cl)sc34)nn2)CC1 [Compound 312] | 91.0 | > 500
19 | C[C@H]1C[C@@]2(C[C@@H](c3cn(Cc4cccc(CO)c4)nn3)N1)OCC(F)(F)c1cc(Cl)sc12 [Compound 313] | 98.0 | –
20 | C[C@H]1C[C@@]2(C[C@@H](c3cn(CCC4CCCOC4)nn3)N1)OCC(F)(F)c1cc(Cl)sc12 (stereo partly shown) [Compound 314] | 99.0 | –
21 | Cc1ccnn1CCn1cc([C@@H]2C[C@]3(C[C@H](C)N2)OCC(F)(F)c2cc(Cl)sc23)nn1 [Compound 315] | 98.0 | –

same assay, conditions: IP50 = IC50 for cell proliferation, APOL1 variant not given

Row | SMILES | IC50 [nM]
22 | C[C@H]1C[C@@]2(C[C@@H](c3cn(CCC4CCCOC4)nn3)N1)OC[C@@H](O)c1cc(Cl)sc12 (stereo partly shown) [Compound 273] | < 50
23 | C[C@H]1C[C@@]2(C[C@@H](c3cn(CC(F)F)nn3)N1)OC[C@@H](O)c1cc(Cl)sc12 [Compound 283] | 50 to 500
24 | CCC(O)Cn1cc([C@@H]2C[C@]3(C[C@H](C)N2)OC[C@@H](O)c2cc(Cl)sc23)nn1 (stereo partly shown) [Compound 284] | 50 to 500
25 | C[C@H]1C[C@@]2(C[C@@H](c3cn(CC4(F)CCOCC4)nn3)N1)OC[C@@H](O)c1cc(Cl)sc12 [Compound 289] | > 500
26 | COc1ccc(Cn2cc([C@@H]3C[C@]4(C[C@H](C)N3)OC[C@@H](O)c3cc(Cl)sc34)nn2)cc1 [Compound 295] | < 50
27 | Cc1cc(Cn2cc([C@@H]3C[C@]4(C[C@H](C)N3)OC[C@@H](O)c3cc(Cl)sc34)nn2)ccn1 [Compound 296] | 50 to 500
28 | Cc1nc(Cn2cc([C@@H]3C[C@]4(C[C@H](C)N3)OC[C@@H](O)c3cc(Cl)sc34)nn2)oc1C [Compound 297] | < 50
29 | C[C@H]1C[C@@]2(C[C@@H](c3cn(Cc4ncc(F)cc4F)nn3)N1)OC[C@@H](O)c1cc(Cl)sc12 [Compound 298] | 50 to 500
30 | C[C@@H](CO)CCn1cc([C@@H]2C[C@]3(C[C@H](C)N2)OC[C@@H](O)c2cc(Cl)sc23)nn1 [Compound 299] | < 50
31 | C[C@H]1C[C@@]2(C[C@@H](c3cn(C[C@H](O)CO)nn3)N1)OC[C@@H](O)c1cc(Cl)sc12 [Compound 300] | 50 to 500
32 | C[C@H]1C[C@@]2(C[C@@H](c3cn(CCOc4ccccc4F)nn3)N1)OC[C@@H](O)c1cc(Cl)sc12 [Compound 301] | < 50
33 | C[C@H]1C[C@@]2(C[C@@H](c3cn(Cc4ccc(O)cc4)nn3)N1)OCC(F)(F)c1cc(Cl)sc12 [Compound 302] | 50 to 500
34 | Cc1cccc(OCC(O)Cn2cc([C@@H]3C[C@]4(C[C@H](C)N3)OCC(F)(F)c3cc(Cl)sc34)nn2)c1 (stereo partly shown) [Compound 303] | 50 to 500
35 | Cc1ccccc1C(O)Cn1cc([C@@H]2C[C@]3(C[C@H](C)N2)OCC(F)(F)c2cc(Cl)sc23)nn1 (stereo partly shown) [Compound 304] | 50 to 500
36 | C[C@H]1C[C@@]2(C[C@@H](c3cn(CCc4ccncn4)nn3)N1)OCC(F)(F)c1cc(Cl)sc12 [Compound 305] | < 50
37 | CC(CO)CCn1cc([C@@H]2C[C@]3(C[C@H](C)N2)OCC(F)(F)c2cc(Cl)sc23)nn1 (stereo partly shown) [Compound 306] | > 500
38 | C[C@H]1C[C@@]2(C[C@@H](c3cn(CC4CCS(=O)(=O)C4)nn3)N1)OCC(F)(F)c1cc(Cl)sc12 (stereo partly shown) [Compound 307] | < 50
39 | C[C@H]1C[C@@]2(C[C@@H](c3cn(Cc4ccc(OC5CCOCC5)cc4)nn3)N1)OCC(F)(F)c1cc(Cl)sc12 [Compound 308] | 50 to 500
40 | C[C@H]1C[C@@]2(C[C@@H](c3cn(CC4CCOCC4)nn3)N1)OCC(F)(F)c1cc(Cl)sc12 [Compound 309] | 50 to 500
41 | C[C@H]1C[C@@]2(C[C@@H](c3cn(Cc4cccc5c4OCCO5)nn3)N1)OCC(F)(F)c1cc(Cl)sc12 [Compound 310] | 50 to 500
42 | C[C@H]1C[C@@]2(C[C@@H](c3cn(CC4CCOC4)nn3)N1)OCC(F)(F)c1cc(Cl)sc12 (stereo partly shown) [Compound 311] | < 50
43 | COCC1(Cn2cc([C@@H]3C[C@]4(C[C@H](C)N3)OCC(F)(F)c3cc(Cl)sc34)nn2)CC1 [Compound 312] | > 500
44 | C[C@H]1C[C@@]2(C[C@@H](c3cn(Cc4cccc(CO)c4)nn3)N1)OCC(F)(F)c1cc(Cl)sc12 [Compound 313] | 50 to 500
45 | C[C@H]1C[C@@]2(C[C@@H](c3cn(CCC4CCCOC4)nn3)N1)OCC(F)(F)c1cc(Cl)sc12 (stereo partly shown) [Compound 314] | < 50
46 | Cc1ccnn1CCn1cc([C@@H]2C[C@]3(C[C@H](C)N2)OCC(F)(F)c2cc(Cl)sc23)nn1 [Compound 315] | 50 to 500
